Where a name gives a salt, the structure may show the parent alone.

The first experiment addresses T1, CCR4 (Homo sapiens, UniProt P51679).
T1 construct: expressed in transfected cells; host or cells: CHO cell membranes
T1 sequence (P51679 1-360): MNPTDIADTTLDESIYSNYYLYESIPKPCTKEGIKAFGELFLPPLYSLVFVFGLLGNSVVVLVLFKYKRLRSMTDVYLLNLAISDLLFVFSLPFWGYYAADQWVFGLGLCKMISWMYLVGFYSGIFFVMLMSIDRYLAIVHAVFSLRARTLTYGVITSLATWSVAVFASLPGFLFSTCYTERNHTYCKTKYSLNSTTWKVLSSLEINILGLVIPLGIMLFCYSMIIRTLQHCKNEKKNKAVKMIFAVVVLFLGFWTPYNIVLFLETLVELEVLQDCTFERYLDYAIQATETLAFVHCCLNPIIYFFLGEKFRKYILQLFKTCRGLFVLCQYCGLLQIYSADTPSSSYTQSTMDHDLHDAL
The experiment in a line: [35S]-GTPγS SPA binding assay for CCR4 antagonist activity. Type of experiment: biochemical. Particulars: CCR4 expressing CHO membranes; human MDC at EC80; [35S]-GTPγS competition. On the procedure:
[35S]-GTPγS SPA Binding Assays for CCR4 Antagonist Activity
Antagonist potency was determined by a radioligand [35S]-GTPγS competition assay. Briefly, CCR4 expressing CHO membranes were homogenised by passing through a 23G needle. These membranes were then adhered to WGA-coated Leadseeker SPA beads in assay buffer (20 mM HEPES, 10 mM MgCl2, 100 mM NaCl, 0.05% BSA, 40 ug/ml Saponin and pH adjusted to 7.4 using KOH 5M) to generate a 3 μg/well final assay concentration (FAC) membrane and 250 μg/well FAC bead, solution.
The bead/membrane/[35S]-GTPγS/Agonist suspension was dispensed into white Greiner polypropylene 384-well plates (45 μl/well), containing 0.5 μl of compound. […] Plates were then read on a Viewlux instrument and luminescence was then plotted as a percentage of the maximum inhibitional response elicited by an IC100 of a standard antagonist.
On the technique in general: GTPγS is a poorly hydrolysed GTP analogue; its binding reports G protein activation.
With `COc1cccc2c1c(NS(=O)(=O)c1ccc(Cl)s1)nn2Cc1cccc(CNC(=O)C[C@H](N)C(=O)O)c1` [Example 80, N^4-[(3-{[3-{[(5-Chloro-2-thienyl)sulfonyl]amino}-4-(methyloxy)-1H-indazol-1-yl]methyl}phenyl)methyl]-L-asparagine trifluoroacetate], the IC50 (as a rule, the concentration that inhibits the measured activity by half) is 3.98 to 15.8 nM.
The compound `CNCC(=O)NCc1cccc(Cn2nc(NS(=O)(=O)c3ccc(Cl)s3)c3c(OC)cccc32)c1` [Example 85, N^1-[(3-{[3-{[(5-Chloro-2-thienyl)sulfonyl]amino}-4-(methyloxy)-1H-indazol-1-yl]methyl}phenyl)methyl]-N^2-methylglycinamide trifluoroacetate] had an IC50 of 3.98 to 15.8 nM.
Consider `COc1cccc2c1c(NS(=O)(=O)c1ccc(Cl)s1)nn2Cc1cccc(CNC(=O)[C@@H](N)CO)c1` [Example 102, N^1-[(3-{[3-{[(5-Chloro-2-thienyl)sulfonyl]amino}-4-(methyloxy)-1H-indazol-1-yl]methyl}phenyl)methyl]-L-serinamide], for which the IC50 was 3.98 to 15.8 nM.
In turn, `COc1cccc2c1c(NS(=O)(=O)c1ccc(Cl)s1)nn2Cc1cccc(CNC(=O)[C@@H](N)Cc2c[nH]c3ccccc23)c1` [Example 114, N-[(3-{[3-{[(5-Chloro-2-thienyl)sulfonyl]amino}-4-(methyloxy)-1H-indazol-1-yl]methyl}phenyl)methyl]-L-tryptophanamide] gave an IC50 of 3.98 to 15.8 nM.
On the same count and under the same terms, the same measure for `COc1cccc2c1c(NS(=O)(=O)c1cccs1)nn2Cc1cccc(CNC(C)=O)c1` [Example 116, N-{[3-({4-(Methyloxy)-3-[(2-thienylsulfonyl)amino]-1H-indazol-1-yl}methyl)phenyl]methyl}acetamide]: 100 to 398 nM.
`COc1cccc2c1c(NS(=O)(=O)c1ccc(C)s1)nn2Cc1ccc(CNC(=O)[C@H]2COCCN2)cc1` [Example 120, (3R)—N-({4-[(4-(methyloxy)-3-{[(5-methyl-2-thienyl)sulfonyl]amino}-1H-indazol-1-yl)methyl]phenyl}methyl)-3-morpholinecarboxamide trifluoroacetate]: the IC50 is 100 to 398 nM.
`COc1cccc2c1c(NS(=O)(=O)c1ccc(Cl)s1)nn2Cc1cccc(CNC(=O)C(C)(C)N)c1` [Example 127, N^1-[(3-{[3-{[(5-Chloro-2-thienyl)sulfonyl]amino}-4-(methyloxy)-1H-indazol-1-yl]methyl}phenyl)methyl]-2-methylalaninamide] gave an IC50 of 3.98 to 15.8 nM.

The next experiment concerns CD4+ CCR4+ T cells. The experiment in a line: Chemokine stimulated increases in cellular F-actin content. Format: cell-based. Particulars: Homo sapiens, T-cell, 0.5 h; PBMC from normal volunteers; antagonist 30 min at 37° C. before agonist for 15 sec; F-actin content by flow cytometry; read-out: pA2 (converted). The procedure:
Chemokine Stimulated Increases in Cellular F-Actin Content
Blood was taken from normal volunteers who had taken no medication within the previous ten days and mixed with 1/9 of the volume of 3.8% tri-sodium citrate solution. Chemokine-induced increases in the F-actin content of CD4+ CCR4+ T cells were measured by a modification of the method of Pilette et al. (Eur. Respir. J; 23: 876-884, 2004). Peripheral blood mononuclear cells (PBMC) were isolated by dextran sedimentation followed by Percoll density gradient centrifugation. The PBMCs were incubated with FITC-conjugated anti-human CD4 and PE-conjugated anti-CCR4 antibodies or appropriate isotype controls for 15 min. The cell suspensions were then centrifuged at 400 g for 10 min and the pellets resuspended in assay buffer (phenol red-free RPMI 1640 medium containing 10 mM HEPES and 0.1% bovine serum albumin) at 10^7/mL. The resulting cell suspension was incubated with antagonist or vehicle (0.1% DMSO) for 30 min at 37° C. before stimulation with the agonist for 15 sec. The assay was terminated by addition of 3% formaldehyde. The fixed cells were washed twice with PBS (centrifuging at 1000 g for 5 min to recover the cells) and incubated at room temperature with Alexa fluor-647 phalloidin (0.075 U/mL) in the presence of lyso-phosphatidylcholine (93.75 μg/ml) for 20 min to stain F-actin. The cells were washed once more with PBS and the relative F-actin content of the cells was measured flow cytometrically. The mean fluorescence intensity of 1000 CD4^+ CCR4^+ cells per sample was determined and expressed as a fraction of the mean intensity of the CD4^+ CCR4^− cells in that sample.
A general note: Flow cytometry measures light scatter and fluorescence of single cells or particles in a stream.
With `COc1cccc2c1c(NS(=O)(=O)c1ccc(Cl)s1)nn2Cc1cccc(CNC(=O)C2(N)CC2)c1` [Example 84, 1-Amino-N-[(3-{[3-{[(5-chloro-2-thienyl)sulfonyl]amino}-4-(methyloxy)-1H-indazol-1-yl]methyl}phenyl)methyl]cyclopropanecarboxamide trifluoroacetate], the Kb was at most 126 nM.
Still for that read-out and setting: the same measure for `COc1cccc2c1c(NS(=O)(=O)c1ccc(Cl)s1)nn2Cc1cccc(CNC(=O)CN(C)C)c1` [Example 86, N^1-[(3-{[3-{[(5-Chloro-2-thienyl)sulfonyl]amino}-4-(methyloxy)-1H-indazol-1-yl]methyl}phenyl)methyl]-N^2,N^2-dimethylglycinamide trifluoroacetate]: at most 126 nM; for `COc1cccc2c1c(NS(=O)(=O)c1ccc(Cl)s1)nn2Cc1cccc(CNC(=O)C2CCCO2)c1` (stereo not shown) [Example 89, N-[(3-{[3-{[(5-Chloro-2-thienyl)sulfonyl]amino}-4-(methyloxy)-1H-indazol-1-yl]methyl}phenyl)methyl]tetrahydro-2-furancarboxamide]: at most 126 nM; for `COc1cccc2c1c(NS(=O)(=O)c1ccc(Cl)s1)nn2Cc1cccc(CNC(=O)C2COCCN2C)c1` (stereo not shown) [Example 96, N-[(3-{[3-{[(5-Chloro-2-thienyl)sulfonyl]amino}-4-(methyloxy)-1H-indazol-1-yl]methyl}phenyl)methyl]-4-methyl-3-morpholinecarboxamide]: at most 126 nM.
The same measure, in the same setting: the same measure for `COc1ccc(Cn2nc(NS(=O)(=O)c3ccc(Cl)s3)c3c(OC)cccc32)cc1OCCN(C)C` [Example 110, 5-Chloro-N-[1-{[3-{[2-(dimethylamino)ethyl]oxy}-4-(methyloxy)phenyl]methyl}-4-(methyloxy)-1H-indazol-3-yl]-2-thiophenesulfonamide]: at most 126 nM; for `O=C(NCc1cccc(Cn2nc(NS(=O)(=O)c3ccc(Cl)s3)c3c(O)cccc32)c1)[C@H]1COCCN1` [Example 111, (3R)—N-({3-[(3-{[(5-chloro-2-thienyl)sulfonyl]amino}-4-hydroxy-1H-indazol-1-yl)methyl]phenyl}methyl)-3-morpholinecarboxamide formate salt]: at most 126 nM; for `CNCC(=O)NCc1cccc(Cn2nc(NS(=O)(=O)c3ccc(Cl)s3)c3c(O)cccc32)c1` [Example 112, N^1-({3-[(3-{[(5-chloro-2-thienyl)sulfonyl]amino}-4-hydroxy-1H-indazol-1-yl)methyl]phenyl}methyl)-N^2-methylglycinamide formate salt]: at most 126 nM.
For `CCNC(=O)NCc1cccc(Cn2nc(NS(=O)(=O)c3ccc(Cl)s3)c3c(OC)cccc32)c1` [Example 113, 5-Chloro-N-[1-{[3-({[(ethylamino)carbonyl]amino}methyl)phenyl]methyl}-4-(methyloxy)-1H-indazol-3-yl]-2-thiophenesulfonamide], the Kb is at most 126 nM.
Take `COc1ccc(Cn2nc(NS(=O)(=O)c3ccc(C)s3)c3c(OC)cccc32)cc1OC` [Example 118, N-[1-{[3,4-Bis(methyloxy)phenyl]methyl}-4-(methyloxy)-1H-indazol-3-yl]-5-methyl-2-thiophenesulfonamide]: the Kb was at most 126 nM.
The same measure, in the same setting: the same measure for `COc1cc(F)cc2c1c(NS(=O)(=O)c1ccc(Cl)s1)nn2Cc1cccc(CNC(C)=O)c1` [Example 129, N-[(3-{[3-{[(5-Chloro-2-thienyl)sulfonyl]amino}-6-fluoro-4-(methyloxy)-1H-indazol-1-yl]methyl}phenyl)methyl]acetamide]: at most 126 nM; for `COc1cccc2c1c(NS(=O)(=O)c1ccc(Cl)s1)nn2Cc1cccc(CNC(=O)[C@@H]2CCCN2)c1` [Example 158, N-[(3-{[3-{[(5-Chloro-2-thienyl)sulfonyl]amino}-4-(methyloxy)-1H-indazol-1-yl]methyl}phenyl)methyl]-L-prolinamide trifluoroacetate]: at most 126 nM.
With `COc1cccc2c1c(NS(=O)(=O)c1ccc(Cl)s1)nn2Cc1cccc(CNC(=O)[C@@H]2CCN2)c1` [Example 159, (2S)—N-[(3-{[3-{[(5-Chloro-2-thienyl)sulfonyl]amino}-4-(methyloxy)-1H-indazol-1-yl]methyl}phenyl)methyl]-2-azetidinecarboxamide trifluoroacetate], the Kb is at most 126 nM.
Turning to `COc1cccc2c1c(NS(=O)(=O)c1ccc(C)s1)nn2Cc1cccc(CNC(=O)[C@H]2COCCN2)c1` [Example 160, (3R)—N-({3-[(4-(Methyloxy)-3-{[(5-methyl-2-thienyl)sulfonyl]amino}-1H-indazol-1-yl)methyl]phenyl}methyl)-3-], the Kb was at most 126 nM.
On to `CCN(CC)C(=O)c1ccc(Cn2nc(NS(=O)(=O)c3ccc(Cl)s3)c3c(OC)cccc32)cc1` [Example 163, 4-{[3-{[(5-Chloro-2-thienyl)sulfonyl]amino}-4-(methyloxy)-1H-indazol-1-yl]methyl}-N,N-diethylbenzamide], for which the Kb is above 1000 nM.
Regarding `O=C(NCc1cccc(Cn2nc(NS(=O)(=O)c3ccc(Cl)s3)c3c(O)cccc32)c1)[C@@H]1COCCN1` [Example 166, (3S)—N-({3-[(3-{[(5-Chloro-2-thienyl)sulfonyl]amino}-4-hydroxy-1H-indazol-1-yl)methyl]phenyl}methyl)-3-morpholinecarboxamide formate salt], the Kb was at most 126 nM.

The values are drawn from US8304446B2, “Compounds” (Glaxo Group Limited, priority 2009, dated 2012).
